According to patent US20060183721A1, “2-Methylene-19-nor-(20S-24epi)-1alpha,25-dihydroxyvitamin D2” (Wisconsin Alumni Research Foundation, priority 2005, published 2006):

Columns and labels:
[1] = Intestinal calcium transport (everted gut sac method); type: in vivo, Sprague-Dawley rats; conditions: compared with 1,25-(OH)2D3, rats, four consecutive ip doses, FIG. 5
Excerpt: FIG. 5 is a bar graph comparing the intestinal calcium transport activity of (20S/24R) 2-MD2 with that of 1,25(OH)2D3.
(§1) Male, weanling Sprague-Dawley rats were placed on Diet 11 (Suda et al. J. Nutr. 100:1049, 1970) (0.47% Ca) diet+vitamins AEK for one week followed by Diet 11 (0.02% Ca)+AEK for 3 weeks. The rats were then switched to a diet containing 0.47% Ca for one week followed by two weeks on a diet containing 0.02% Ca. Dose administration began during the last week on 0.02% calcium diet. Four consecutive ip doses were given approximately 24 hours apart. Twenty-four hours after the last dose, blood was collected from the severed neck and the concentration of serum calcium determined as a measure of bone calcium mobilization. The first 10 cm of the intestine was also collected for intestinal calcium transport analysis using the everted gut sac method.

[2] = Bone calcium mobilization (serum calcium); type: in vivo, Sprague-Dawley rats; conditions: compared with 1,25-(OH)2D3, rats, four consecutive ip doses, FIG. 4
Excerpt: FIG. 4 is a bar graph comparing the bone calcium mobilization activity of (20S/24R) 2-MD2 with that of 1,25(OH)2D3.
as §1

[3] = tested on: Human promyelocytic leukemia (HL60) cells; assay: HL-60 cell differentiation (nitro blue tetrazolium reduction); type: cell-based; conditions: compared with 1,25-(OH)2D3; FIG. 2
Procedure: FIG. 2 is a graph comparing the percent HL-60 cell differentiation as a function of the concentration of (20S/24R) 2-MD2 with that of 1,25(OH)2D3.
The study drugs were dissolved in ethanol and the concentrations determined using UV spectrophotometry. Serial dilutions were prepared so that a range of drug concentrations could be tested without changing the final concentration of ethanol (≦0.2%) present in the cell cultures.
Human promyelocytic leukemia (HL60) cells were grown in RPMI-1640 medium containing 10% fetal bovine serum. The cells were incubated at 37° C. in the presence of 5% CO2.
HL60 cells were plated at 1.2×10^5 cells/ml. Eighteen hours after plating, cells in duplicate were treated with drug. Four days later, the cells were harvested and a nitro blue tetrazolium reduction assay was performed (Collins et al., 1979; J. Exp. Med. 149:969-974). The percentage of differentiated cells was determined by counting a total of 200 cells and recording the number that contained intracellular black-blue formazan deposits. Verification of differentiation to monocytic cells was determined by measuring phagocytic activity (data not shown).

[4] = target: T1, full-length recombinant rat vitamin D receptor (Rattus norvegicus, UniProt P13053); assay: Vitamin D receptor competitive binding with [3H]-1,25-(OH)2-D3; conditions: compared with native hormone 1,25(OH)2D3; FIG. 1
T1 construct: Full-length recombinant rat receptor was expressed in E. coli BL21(DE3) Codon Plus RIL cells; histidine tag (C); made in house; host or cells: E. coli BL21(DE3) Codon Plus RIL
T1 sequence (P13053 1-423): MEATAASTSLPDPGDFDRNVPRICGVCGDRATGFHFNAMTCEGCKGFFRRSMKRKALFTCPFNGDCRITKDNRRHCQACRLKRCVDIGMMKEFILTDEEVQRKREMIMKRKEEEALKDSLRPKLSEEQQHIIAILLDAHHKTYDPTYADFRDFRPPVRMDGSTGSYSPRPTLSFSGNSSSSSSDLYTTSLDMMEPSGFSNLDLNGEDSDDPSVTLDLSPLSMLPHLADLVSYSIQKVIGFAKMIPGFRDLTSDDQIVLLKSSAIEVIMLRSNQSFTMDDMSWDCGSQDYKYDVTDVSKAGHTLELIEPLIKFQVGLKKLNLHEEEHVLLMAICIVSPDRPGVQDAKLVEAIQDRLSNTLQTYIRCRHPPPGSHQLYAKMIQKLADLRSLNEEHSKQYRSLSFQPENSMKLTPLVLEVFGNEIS
Excerpt: FIG. 1 is a graph comparing the relative activity of (20S/24R) 2-MD2 and 1,25(OH)2D3 to compete for binding with [^3H]-1,25-(OH)2-D3 to the full-length recombinant rat vitamin D receptor.
Full-length recombinant rat receptor was expressed in E. coli BL21(DE3) Codon Plus RIL cells and purified to homogeneity using two different column chromatography systems. The first system was a nickel affinity resin that utilizes the C-terminal histidine tag on this protein. The protein that was eluted from this resin was further purified using ion exchange chromatography (S-Sepharose Fast Flow). Aliquots of the purified protein were quick frozen in liquid nitrogen and stored at −80° C. until use. For use in binding assays, the protein was diluted in TEDK50 (50 mM Tris, 1.5 mM EDTA, pH 7.4, 5 mM DTT, 150 mM KCl) with 0.1% Chaps detergent. […]
Unlabeled ligands were dissolved in ethanol and the concentrations determined using UV spectrophotometry (1,25(OH)2D3: molar extinction coefficient=18,200 and λmax=265 nm; Analogs: molar extinction coefficient=42,000 and λmax=252 nm). […]
Radiolabeled and unlabeled ligands were added to 100 mcl of the diluted protein at a final ethanol concentration of ≦10%, mixed and incubated overnight on ice to reach binding equilibrium. […] Total binding was determined from the tubes containing only radiolabeled ligand.

[5] = tested on: 24-hydroxylase (24Ohase) gene promoter in ROS 17/2.8 (bone) cells; assay: In vitro transcription assay (24-hydroxylase promoter luciferase reporter); type: cell-based; conditions: compared with 1,25-(OH)2D3; ROS 17/2.8 cells, 24Ohase-luciferase; FIG. 3
Procedure: FIG. 3 is a graph comparing the in vitro transcription activity of (20S/24R) 2-MD2 with that of 1,25(OH)2D3.
Transcription activity was measured in ROS 17/2.8 (bone) cells that were stably transfected with a 24-hydroxylase (24Ohase) gene promoter upstream of a luciferase reporter gene (Arbour et al., 1998). Cells were given a range of doses. Sixteen hours after dosing the cells were harvested and luciferase activities were measured using a luminometer. RLU=relative luciferase units.

binding to the vitamin D receptor [4]: almost equal to the native hormone
Compound: C=C1[C@H](O)CC(=C/C=C2\CCC[C@]3(C)C([C@@H](C)/C=C/[C@@H](C)C(C)(C)O)CC[C@@H]23)C[C@H]1O (stereo in doubt) [2-methylene-19-nor-(20S-24epi)-1α,25-dihydroxyvitamin D2]
intestinal calcium transport activity [1]: approximately equal to 1,25-(OH)2D3 | bone calcium mobilizing activity [2]: more bone calcium mobilizing activity than 1,25-(OH)2D3 | inducing differentiation of HL-60 cells [3]: more activity than 1,25-(OH)2D3 | causing transcription [5]: more effective than 1,25-(OH)2D3
